Experiments:
[1] = tested on: spontaneously hypertensive rats (SHR); assay: Effect on blood pressure in spontaneously hypertensive rats (telemetry); type: in vivo, rat; conditions: i.v. sildenafil 3 mg/kg, alone or with compound of Formula IV 10 μmol/kg, change vs. baseline averaged over last 15 min of 30 min after treatment
Description: (§1) The results are expressed as mean±SEM of the maximal systolic blood pressure increase (from baseline) observed after the Big-ET challenge (n: number of animals). 2. Effect on Blood Pressure in Spontaneously Hypertensive Rats
Male spontaneously hypertensive rats (=SHR, insulin resistant strain from Charles River; aged 6 months) were equipped with telemetry transmitters for continuous monitoring of blood pressure and heart rate. Telemetry transmitters for continuous monitoring of blood pressure, heart rate and locomotor activity (TA11PA-C40, Data Sciences, USA) were implanted intraabdominally under inhalative halothane anesthesia. A midline abdominal incision was made, and the abdominal aorta was visualized by removal of retroperitoneal fat and connective tissue. A ligature was placed caudal of the renal arteries, the aorta was punctured with a 22G needle, and the catheter was advanced into the aorta. The entry point was sealed with tissue adhesive (Vetbond®, 3M, USA), the ligature was removed, and the abdominal incision was closed. […]
On the day of the experiments, blood pressure was first monitored for 30 min under baseline (untreated) conditions before a group of animals received sildenafil (3 mg/kg), and another one sildenafil (3 mg/kg) combined with compound of Formula IV (10 μmol/kg) via injection into the caudal vein. Blood pressure was then measured for another 30 min. […]

[2] = tested on: Male Sprague-Dawley rats; assay: Big-ET-induced hypertension following intravenous bolus administration in rats; type: in vivo, rat; conditions: for Maximal Big-ET-induced increase in SAP: anaesthetised rats, i.v. bolus sildenafil 1 mg/kg and/or compound of Formula IV 10 μmol/kg, 0.5 nmol/kg Big-ET 8 min later, mean increase from baseline
Method: 1. Big-ET-Induced Hypertension Following Intravenous Bolus Administration in Rats
Male Sprague-Dawley rats (˜[…], fed a standard chow diet, fasted for 18 h prior to the experiments, with free access to drinking water) were anaesthetised with 1 ml/kg Rompun/Ketavet 1:1, and then transferred to servo-controlled, heated tables to maintain body temperature at 37° C. A pressure transducer (Statham) was connected to one carotid artery for measurement of arterial blood pressure. Both jugular veins were cannulated for compound and Big-ET-infusion (Big-ET=endogenous precursor of endothelin), respectively. After an equilibration period of 20 minutes (=min), the animals received either vehicle (10% arlatone G, 10% ethanol, 80% H2O), sildenafil (1 mg/kg), compound of Formula IV (10 μmol/kg), or a combination of sildenafil+compound of Formula IV intravenously (over 1 min in a total volume of 2 ml/kg body weight). 8 min later, 0.5 nmol/kg Big-ET was infused (over 1 min; Big-ET was from Bachem, Heidelberg). Systolic (SAP) and diastolic arterial blood pressures and heart rate were recorded every 5 min for the next 15 min.
The maximal pressor and bradycardic effects were typically reached within 5 min following Big-ET administration.
as §1

Compound | Average change in systolic blood pressure [1] | time for which the drop in blood pressure was stable ([2]; after i.v. sildenafil 1 mg/kg, until timepoint of Big-ET application) | Maximal Big-ET-induced increase in SAP [2] | drop in systolic blood pressure as compared to baseline ([2]; immediately after i.v. administration, before the Big-ET challenge, sildenafil 1 mg/kg, compound of Formula IV 10 μmol/kg) | effect on the hypotensive action of sildenafil ([2]; compound of Formula IV 10 μmol/kg i.v. with sildenafil 1 mg/kg, before Big-ET challenge)
CCCc1nn(C)c2c(=O)[nH]c(-c3cc(S(=O)(=O)N4CCN(C)CC4)ccc3OCC)nc12 [Sildenafil, sildenafil] | −10.5 mm Hg | at least 8 min | 42.6 mm Hg | 15±3 mm Hg | 
O=C(O)CN1C(=O)C(NC(=O)C2(CC(CCc3ccccc3)C(=O)O)CCCC2)CCc2ccccc21 (stereo not drawn) [compound of Formula IV, 2-[1-(1-carboxymethyl-2-oxo-2,3,4,5-tetrahydro-1H-benzo[b]azepin-3-ylcarbamoyl)-cyclopentylmethyl]-4-phenyl-butyric acid] |  |  | 43.0 mm Hg |  | not reinforce the hypotensive action of sildenafil
